For assay [1], the system named is MIA PaCa-2. As to the kind of experiment: cells. The following applies: Homo sapiens, MIA PaCa-2, 72 h.
Description: Cytotoxicity against human MIA PaCa-2 cells assessed as inhibition of cell growth incubated for 72 hrs by MTT assay
The test system of assay [2] is SK-OV-3. As to the kind of experiment: cells. The following applies: Homo sapiens, SK-OV-3, 72 h.
Description: Cytotoxicity against human SK-OV-3 cells assessed as inhibition of cell growth incubated for 72 hrs by MTT assay
The target of assay [3] is T1, Protein cereblon/Nicotinamide phosphoribosyltransferase (Homo sapiens) (UniProt P43490+Q96SW2). The assay is described as follows: PROTAC activity at CRBN/NAMPT in human SK-OV-3 cells assessed as induction of intracellular NAMPT degradation at 0.5 to 5 uM incubated for 24 hrs by Western blot analysis. In kind it is cell-based. As to conditions: dose 0.5-5 µM. A general note: In western blotting, separated proteins are transferred to a membrane and probed.
T1 sequence (P43490 whole entry, looked up): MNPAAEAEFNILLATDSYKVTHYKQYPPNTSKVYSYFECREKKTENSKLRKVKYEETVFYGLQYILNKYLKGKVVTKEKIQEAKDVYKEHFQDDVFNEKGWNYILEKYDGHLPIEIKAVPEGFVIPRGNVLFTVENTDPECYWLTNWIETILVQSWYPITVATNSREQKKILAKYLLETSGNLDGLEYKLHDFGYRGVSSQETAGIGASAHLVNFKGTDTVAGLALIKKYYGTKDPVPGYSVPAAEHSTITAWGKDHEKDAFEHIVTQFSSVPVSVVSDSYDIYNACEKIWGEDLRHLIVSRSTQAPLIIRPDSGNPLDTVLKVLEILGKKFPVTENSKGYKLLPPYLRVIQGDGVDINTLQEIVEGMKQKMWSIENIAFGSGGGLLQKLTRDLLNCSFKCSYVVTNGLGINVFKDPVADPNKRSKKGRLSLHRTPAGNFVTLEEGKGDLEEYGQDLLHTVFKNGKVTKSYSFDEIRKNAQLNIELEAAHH
T1 sequence (Q96SW2 whole entry, looked up): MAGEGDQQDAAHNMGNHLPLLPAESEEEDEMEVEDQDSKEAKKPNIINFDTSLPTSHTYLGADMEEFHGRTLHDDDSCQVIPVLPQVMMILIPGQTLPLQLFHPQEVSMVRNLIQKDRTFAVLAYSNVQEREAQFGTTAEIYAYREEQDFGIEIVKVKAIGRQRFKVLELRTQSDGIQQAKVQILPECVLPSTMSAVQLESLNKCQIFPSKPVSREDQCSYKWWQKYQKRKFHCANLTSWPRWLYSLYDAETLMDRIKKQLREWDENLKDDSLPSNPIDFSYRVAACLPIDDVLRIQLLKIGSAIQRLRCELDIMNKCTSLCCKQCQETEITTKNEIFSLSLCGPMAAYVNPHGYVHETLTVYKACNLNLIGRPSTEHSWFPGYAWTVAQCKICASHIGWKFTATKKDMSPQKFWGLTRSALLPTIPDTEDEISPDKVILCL

The target in assay [4] is T1, Protein cereblon/Nicotinamide phosphoribosyltransferase (Homo sapiens). The assay is described as follows: PROTAC activity at CRBN/NAMPT in human SK-OV-3 cells assessed as induction of intracellular NAMPT degradation at 5 uM incubated for 24 hrs by Western blot analysis relative to control. The class given is cell-based.
The target is the same in assay [5]. As to the kind of experiment: PROTAC activity at CRBN/NAMPT in human SK-OV-3 cells assessed as induction of intracellular NAMPT degradation at 0.5 uM incubated for 24 hrs by Western blot analysis relative to control. In kind it is cell-based.
Assay [6] has as its target Nicotinamide phosphoribosyltransferase (Mus musculus) (UniProt Q99KQ4). As to the kind of experiment: Induction of NAMPT degradation in mouse CT26 cells at 0.1 to 5 uM incubated for 24 hrs by Western blot analysis. The class given is cell-based. The following applies: dose 0.1-5 µM.
Assay [7] relates to CT26. As to the kind of experiment: cells. As to conditions: Mus musculus, CT26, 72 h.
Description: Cytotoxicity against mouse CT26 cells assessed as inhibition of cell growth incubated for 72 hrs by MTT assay

Calls of active or inactive are those of the source. No cut-off for these calls is given here. Some results are limits rather than exact numbers.

Sequence of Nicotinamide phosphoribosyltransferase (Mus musculus) (Q99KQ4 whole entry, looked up): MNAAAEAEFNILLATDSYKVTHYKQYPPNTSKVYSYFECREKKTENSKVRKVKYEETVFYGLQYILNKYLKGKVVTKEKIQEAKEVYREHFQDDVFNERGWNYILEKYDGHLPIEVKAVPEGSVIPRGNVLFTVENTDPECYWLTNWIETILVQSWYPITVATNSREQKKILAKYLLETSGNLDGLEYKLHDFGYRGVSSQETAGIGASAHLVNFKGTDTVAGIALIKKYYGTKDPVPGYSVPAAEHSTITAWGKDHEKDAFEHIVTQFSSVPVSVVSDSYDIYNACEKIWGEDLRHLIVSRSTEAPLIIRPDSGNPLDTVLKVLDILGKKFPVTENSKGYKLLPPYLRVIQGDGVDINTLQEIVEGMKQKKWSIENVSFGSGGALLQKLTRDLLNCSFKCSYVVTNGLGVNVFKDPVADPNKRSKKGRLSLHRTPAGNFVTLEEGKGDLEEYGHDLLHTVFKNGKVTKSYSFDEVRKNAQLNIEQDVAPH

With `O=C(/C=C/c1cccnc1)NCCCCC1CCN(C(=O)c2ccc(C(=O)N3CCC4(CC3)CC(C(=O)N3CCN(c5cccc6c5C(=O)N(C5CCC(=O)NC5=O)C6=O)CC3)C4)cc2)CC1` (stereo not given), the IC50 in assay [1] and in assay [2] was 4 nM each time. Further, the outcome in assay [3] was inactive.
On to `O=C(/C=C/c1cccnc1)NCCCCC1CCN(C(=O)c2ccc(NC(=O)CN3CCN(c4cccc5c4C(=O)N(C4CCC(=O)NC4=O)C5=O)CC3)cc2)CC1` (stereo not given), for which the IC50 in assay [1] and in assay [2] was 4 nM throughout. Further, the result in assay [3] was inactive.
For `O=C(/C=C/c1cccnc1)NCCCCC1CCN(C(=O)c2ccc(C(=O)NCCNc3cccc4c3C(=O)N(C3CCC(=O)NC3=O)C4=O)cc2)CC1` (stereo not given), the Activity in assay [4] stood at 11%; in assay [5], 0%. Further, the IC50 in assay [1] and in assay [2] was 4 nM in each case.
On to `O=C(/C=C/c1cccnc1)NCCCCC1CCN(C(=O)c2ccc(C(=O)NCCCCCNc3cccc4c3C(=O)N(C3CCC(=O)NC3=O)C4=O)cc2)CC1` (stereo not given), for which the Activity in assay [4] and in assay [5] was 0% each time. Besides, the IC50 in assay [1] and in assay [2] was 4 nM in each case.
In the case of `O=C(/C=C/c1cccnc1)NCCCCC1CCN(C(=O)c2ccc(NC(=O)COCCOCCOCCNc3cccc4c3C(=O)N(C3CCC(=O)NC3=O)C4=O)cc2)CC1` (stereo not given), the Activity in assay [4] and in assay [5] was 0% throughout. Further, the IC50 in assay [1] and in assay [2] was 4 nM each time.
As to `O=C(/C=C/c1cccnc1)NCCCCC1CCN(C(=O)c2ccc(C(=O)N3CCC4(CCN(c5cccc6c5C(=O)N(C5CCC(=O)NC5=O)C6=O)C4)C3)cc2)CC1` (stereo not given), the IC50 in assay [1] and in assay [2] was 4 nM in each case. For the same compound, in assay [3], the result was inactive.
Regarding `O=C(/C=C/c1cccnc1)NCCCCC1CCN(C(=O)c2ccc(C(=O)NCCCCCCNc3cccc4c3C(=O)N(C3CCC(=O)NC3=O)C4=O)cc2)CC1` (stereo not given), the Activity in assay [4] and in assay [5] was 0% throughout. Moreover, the IC50 in assay [1] and in assay [2] was 4 nM throughout.
As for `O=C(/C=C/c1cccnc1)NCCCCC1CCN(C(=O)c2ccc(C(=O)N3CCC(CC(=O)Nc4cccc5c4C(=O)N(C4CCC(=O)NC4=O)C5=O)CC3)cc2)CC1` (stereo not given), the concentration for half-maximal inhibition (IC50) in assay [1] and in assay [2] was 4 nM each time. In addition, the outcome in assay [3] was inactive.
On to `O=C(/C=C/c1cccnc1)NCCCCC1CCN(C(=O)c2ccc(C(=O)NCc3cn(CCOCCOCCNc4cccc5c4C(=O)N(C4CCC(=O)NC4=O)C5=O)nn3)cc2)CC1` (stereo not given), for which the Activity in assay [4] and in assay [5] was 0% throughout. Further, the IC50 in assay [1] and in assay [2] was 4 nM in each case.
In the case of `O=C(/C=C/c1cccnc1)NCCCCC1CCN(C(=O)c2ccc(C(=O)NCc3cn(CCOCCOCCOCCOCCOCCNc4cccc5c4C(=O)N(C4CCC(=O)NC4=O)C5=O)nn3)cc2)CC1` (stereo not given), the Activity in assay [4] was found to be 52%; in assay [5] it was 51%. For the same compound, the IC50 in assay [1] and in assay [2] was 4 nM in each case.
Consider `O=C(/C=C/c1cccnc1)NCCCCC1CCN(C(=O)c2ccc(C(=O)N3CCN(c4cccc5c4C(=O)N(C4CCC(=O)NC4=O)C5=O)CC3)cc2)CC1` (stereo not given), for which the IC50 in assay [1] and in assay [2] was 4 nM in each case. The result in assay [3] was inactive.
In the case of `O=C(/C=C/c1cccnc1)NCCCCC1CCN(C(=O)c2ccc(C(=O)NCc3cn(CCOCCNc4cccc5c4C(=O)N(C4CCC(=O)NC4=O)C5=O)nn3)cc2)CC1` (stereo not given), the figures for the Activity in assay [4] and in assay [5] were 30% and 25%, respectively. Moreover, the IC50 in assay [1] and in assay [2] was 4 nM throughout.
Take `O=C(/C=C/c1cccnc1)NCCCCC1CCN(C(=O)c2ccc(C(=O)N3CCC(C(=O)N4CCN(c5cccc6c5C(=O)N(C5CCC(=O)NC5=O)C6=O)CC4)CC3)cc2)CC1` (stereo not given): the half-inhibitory concentration (IC50) in assay [1] and in assay [2] was 4 nM throughout. Besides, the outcome in assay [3] was inactive.
As to `O=C(/C=C/c1cccnc1)NCCCCC1CCN(C(=O)c2ccc(NC(=O)CCCN3CCN(c4cccc5c4C(=O)N(C4CCC(=O)NC4=O)C5=O)CC3)cc2)CC1` (stereo not given), the IC50 in assay [1] and in assay [2] was 4 nM each time. For the same compound, the result in assay [3] was inactive.
With `O=C(/C=C/c1cccnc1)NCCCCC1CCN(C(=O)c2ccc(NC(=O)COCCOCCOCCOCCNc3cccc4c3C(=O)N(C3CCC(=O)NC3=O)C4=O)cc2)CC1` (stereo not given), the Activity in assay [4] and in assay [5] was 0% throughout. Moreover, the IC50 in assay [1] and in assay [2] was 4 nM each time.
For `O=C(/C=C/c1cccnc1)NCCCCC1CCN(C(=O)c2ccc(C(=O)NCc3cn(CCOCCOCCOCCOCCNc4cccc5c4C(=O)N(C4CCC(=O)NC4=O)C5=O)nn3)cc2)CC1` (stereo not given), the results for the Activity in assay [4] and in assay [5] were 27% and 40%, respectively. For the same compound, the IC50 in assay [1] and in assay [2] was 4 nM each time.
With `O=C(/C=C/c1cccnc1)NCCCCC1CCN(C(=O)c2ccc(C(=O)N3CCC4(C3)CN(c3cccc5c3C(=O)N(C3CCC(=O)NC3=O)C5=O)C4)cc2)CC1` (stereo not given), the IC50 in assay [1] and in assay [2] was 4 nM each time. Also, the result in assay [3] was inactive.
Turning to `O=C(/C=C/c1cccnc1)NCCCCC1CCN(C(=O)c2ccc(C(=O)NCc3cn(CCOCCOCCOCCNc4cccc5c4C(=O)N(C4CCC(=O)NC4=O)C5=O)nn3)cc2)CC1` (stereo not given), the Activity in assay [4] amounted to 20%; in assay [5], 34%. The IC50 in assay [1] and in assay [2] was 4 nM in each case.
With `O=C(/C=C/c1cccnc1)NCCCCC1CCN(C(=O)c2ccc(C(=O)N3CCN(Cc4ccc(CNc5cccc6c5C(=O)N(C5CCC(=O)NC5=O)C6=O)cc4)CC3)cc2)CC1` (stereo not given), the IC50 in assay [1] and in assay [2] was 4 nM in each case. Moreover, in assay [3], the result was inactive.
Consider `O=C(/C=C/c1cccnc1)NCCCCC1CCN(C(=O)c2ccc(NC(=O)CCOCCOCCOCCOCCNc3cccc4c3C(=O)N(C3CCC(=O)NC3=O)C4=O)cc2)CC1` (stereo not given), for which the Activity in assay [4] and in assay [5] was 0% in each case. For the same compound, the IC50 in assay [1] and in assay [2] was 4 nM in each case.
`Cc1ncsc1-c1ccc([C@H](C)NC(=O)[C@H]2C[C@H](O)CN2C(=O)[C@@H](NC(=O)COCCOCCOCCNC(=O)c2ccc(C(=O)N3CCC(CCCCNC(=O)/C=C/c4cccnc4)CC3)cc2)C(C)(C)C)cc1`: the outcome in assay [6] was inactive.
As for `Cc1ncsc1-c1ccc([C@@H](C)NC(=O)[C@@H]2C[C@@H](O)CN2C(=O)[C@@H](NC(=O)COCCOCCOCCOCCNC(=O)c2ccc(CN3CCN(S(=O)(=O)c4ccc(NC(=S)NCc5cccnc5)cc4)CC3)cc2)C(C)(C)C)cc1`, the values for the IC50 in assay [2] and in assay [7] were 9930 nM and over 100000 nM, respectively.
Regarding `O=C(/C=C/c1cccnc1)NCCCCC1CCN(C(=O)c2ccc(NC(=O)CCCCN3CCN(c4cccc5c4C(=O)N(C4CCC(=O)NC4=O)C5=O)CC3)cc2)CC1` (stereo not given), the IC50 in assay [1] and in assay [2] was 4 nM each time. Also, in assay [3], the outcome was inactive.
For the compound `O=C(/C=C/c1cccnc1)NCCCCC1CCN(C(=O)c2ccc(C(=O)NCCCCCc3cccc4c3CN(C3CCC(=O)NC3=O)C4=O)cc2)CC1` (stereo not given), the Activity in assay [4] and in assay [5] was 0% each time. For the same compound, the IC50 in assay [1] and in assay [2] was 4 nM each time.
On to `O=C(/C=C/c1cccnc1)NCCCCC1CCN(C(=O)c2ccc(C(=O)N3CCC(C(=O)Nc4cccc5c4C(=O)N(C4CCC(=O)NC4=O)C5=O)CC3)cc2)CC1` (stereo not given), for which the half-inhibitory concentration (IC50) in assay [1] and in assay [2] was 4 nM each time. Also, the result in assay [3] was inactive.
For the compound `O=C(/C=C/c1cccnc1)NCCCCC1CCN(C(=O)c2ccc(C(=O)N3CC4(CCN(c5cccc6c5C(=O)N(C5CCC(=O)NC5=O)C6=O)CC4)C3)cc2)CC1` (stereo not given), the IC50 in assay [1] and in assay [2] was 4 nM each time. Moreover, in assay [3], the outcome was inactive.
Consider `O=C(/C=C/c1cccnc1)NCCCCC1CCN(C(=O)c2ccc(C(=O)NCCCNc3cccc4c3C(=O)N(C3CCC(=O)NC3=O)C4=O)cc2)CC1` (stereo not given), for which the Activity in assay [4] was determined as 0%; in assay [5], 29%. Moreover, the 50% inhibitory concentration (IC50) in assay [1] and in assay [2] was 4 nM throughout.
Consider `O=C(/C=C/c1cccnc1)NCCCCC1CCN(C(=O)c2ccc(C(=O)N3CCC4(CC3)CN(c3cccc5c3C(=O)N(C3CCC(=O)NC3=O)C5=O)C4)cc2)CC1` (stereo not given), for which the IC50 in assay [1] and in assay [2] was 4 nM throughout. The outcome in assay [3] was inactive.
In the case of `O=C(/C=C/c1cccnc1)NCCCCC1CCN(C(=O)c2ccc(NC(=O)COCCOCCNc3cccc4c3C(=O)N(C3CCC(=O)NC3=O)C4=O)cc2)CC1` (stereo not given), the Activity in assay [4] and in assay [5] was 0% throughout. Further, the IC50 in assay [1] and in assay [2] was 4 nM each time.
`O=C(/C=C/c1cccnc1)NCCCCC1CCN(C(=O)c2ccc(C(=O)NCCCCNc3cccc4c3C(=O)N(C3CCC(=O)NC3=O)C4=O)cc2)CC1` (stereo not given): the values for the Activity in assay [4] and in assay [5] were 22% and 0%, respectively. Also, the IC50 in assay [1] and in assay [2] was 4 nM in each case.
Regarding `O=C(/C=C/c1cccnc1)NCCCCC1CCN(C(=O)c2ccc(NC(=O)c3ccc(CN4CCN(c5cccc6c5C(=O)N(C5CCC(=O)NC5=O)C6=O)CC4)cc3)cc2)CC1` (stereo not given), the IC50 in assay [1] and in assay [2] was 4 nM in each case. Besides, the outcome in assay [3] was inactive.

For orientation: IC50 means the concentration needed to halve the response being measured.

These data come from ChEMBL document CHEMBL5506040, “Design of FK866-Based Degraders for Blocking the Nonenzymatic Functions of Nicotinamide Phosphoribosyltransferase” (J Med Chem, 2024).
